Calls of active or inactive are those of the source.
How the values were obtained:
[1] = target: Beta-lactamase TEM (Bacteria) (UniProt P62593); assay: Inhibition of recombinant N-terminal His-tagged Escherichia coli TEM1 (24 to 286 residues) expressed in Escherichia coli BL21(DE3) at 200 uM using FC5 as substrate
[2] = target: Beta-lactamase (Escherichia coli K-12) (UniProt P00811); assay: Inhibition of recombinant Escherichia coli AmpC at 200 uM using FC5 as substrate preincubated at 10 to 300 mins followed by substrate addition
Sequence of Beta-lactamase (Escherichia coli K-12) (P00811 whole entry): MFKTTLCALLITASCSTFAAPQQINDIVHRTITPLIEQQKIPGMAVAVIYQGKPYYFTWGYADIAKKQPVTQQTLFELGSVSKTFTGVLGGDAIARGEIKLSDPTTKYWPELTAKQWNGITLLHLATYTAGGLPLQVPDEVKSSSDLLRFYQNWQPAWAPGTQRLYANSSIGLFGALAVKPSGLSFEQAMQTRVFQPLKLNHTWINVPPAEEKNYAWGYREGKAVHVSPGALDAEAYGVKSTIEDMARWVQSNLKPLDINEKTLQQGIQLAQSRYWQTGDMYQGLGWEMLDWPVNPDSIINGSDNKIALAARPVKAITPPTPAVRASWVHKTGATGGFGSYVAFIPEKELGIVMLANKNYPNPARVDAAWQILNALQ

[3] = target: Beta-lactamase OXA-10 (Pseudomonas aeruginosa) (UniProt P14489); assay: Inhibition of recombinant Pseudomonas aeruginosa OXA-10 at 200 uM using FC5 as substrate
Sequence of Beta-lactamase OXA-10 (Pseudomonas aeruginosa) (P14489 whole entry): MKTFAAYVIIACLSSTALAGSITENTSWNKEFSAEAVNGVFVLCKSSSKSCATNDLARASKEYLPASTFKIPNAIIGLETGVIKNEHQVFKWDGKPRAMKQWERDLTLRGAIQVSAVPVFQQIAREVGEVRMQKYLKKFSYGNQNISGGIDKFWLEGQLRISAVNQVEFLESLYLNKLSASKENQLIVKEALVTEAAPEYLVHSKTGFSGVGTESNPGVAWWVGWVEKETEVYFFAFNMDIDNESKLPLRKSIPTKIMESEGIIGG

[4] = target: Beta-lactamase CTX-M (Escherichia coli) (UniProt Q9EXV5); assay: Inhibition of recombinant Escherichia coli EO516 N-terminal His6-tagged CTX-M using FC5 as substrate at 200 uM preincubated at 10 to 300 mins followed by substrate addition

Measured: inhibition

Sequence of Beta-lactamase TEM (Bacteria) (P62593 whole entry, the tested form may be a part): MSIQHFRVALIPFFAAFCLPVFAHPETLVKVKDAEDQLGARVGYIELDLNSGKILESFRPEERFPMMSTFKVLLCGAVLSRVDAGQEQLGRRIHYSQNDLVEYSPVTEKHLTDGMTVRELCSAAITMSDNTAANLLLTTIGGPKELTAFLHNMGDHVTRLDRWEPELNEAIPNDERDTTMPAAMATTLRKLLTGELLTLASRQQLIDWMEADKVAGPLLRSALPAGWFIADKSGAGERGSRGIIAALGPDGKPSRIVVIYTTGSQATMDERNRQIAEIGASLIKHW

O=C(O)CN1C(=O)/C(=C/c2ccccc2)SC1=S
inactive: all assays above

O=C(O)/C(S)=C/c1c(F)cccc1Cl
inactive: all assays above

O=C(O)CN1C(=O)/C(=C/c2cc(Cl)ccc2Cl)SC1=S
inactive: all assays above

O=C(O)CN1C(=O)/C(=C/c2c(F)ccc(F)c2F)SC1=S
inactive: all assays above

CN1CCN(NC(=O)CN2C(=O)/C(=C/c3c(F)cccc3Cl)SC2=S)CC1
inactive: all assays above

O=C(O)CN1C(=O)/C(=C/c2cccc(Cl)c2Cl)SC1=S
inactive: all assays above

O=C(O)CN1C(=O)/C(=C/c2ccc(F)cc2)SC1=S
inactive: all assays above

O=C(O)/C(S)=C/c1c(F)ccc(F)c1F
inactive: all assays above

O=C(O)CN1C(=O)/C(=C/c2ccccc2Cl)SC1=S
inactive: all assays above

O=C(O)CN1C(=O)/C(=C/c2ccccc2I)SC1=S
inactive: all assays above

Cc1ccc(/C=C2\SC(=S)N(CC(=O)O)C2=O)cc1
inactive: all assays above

O=C(O)CN1C(=O)/C(=C/c2c(F)cccc2Cl)SC1=S
inactive: all assays above

O=C(O)CN1C(=O)/C(=C/c2ccc(Br)cc2)SC1=S
inactive: all assays above

O=C(O)CN1C(=O)/C(=C/c2c(F)cccc2F)SC1=S
inactive: all assays above

COc1ccc(/C=C2\SC(=S)N(CC(=O)O)C2=O)cc1
inactive: all assays above

O=C(O)CN1C(=O)/C(=C/c2c(Cl)cccc2Cl)SC1=S
inactive: all assays above

O=C(O)/C(S)=C/c1ccc(Br)cc1
inactive: all assays above

O=C(O)/C(S)=C/c1ccccc1F
inactive: all assays above

O=C(O)CN1C(=O)/C(=C/c2ccccc2F)SC1=S
inactive: all assays above

O=C(O)/C(S)=C/c1c(F)cccc1F
inactive: all assays above

CN1CCN(NC(=O)CN2C(=O)/C(=C/c3ccccc3I)SC2=S)CC1
inactive: all assays above

COc1ccc(/C=C2\SC(=S)N(CC(=O)NN3CCN(C)CC3)C2=O)cc1
inactive: all assays above

O=C(O)CN1C(=O)/C(=C/c2csc3ccccc23)SC1=S
inactive: all assays above

CN1CCN(NC(=O)CN2C(=O)/C(=C/c3c(Cl)cccc3Cl)SC2=S)CC1
inactive: all assays above

CN1CCN(NC(=O)CN2C(=O)/C(=C/c3c(Cl)ccc(Cl)c3Cl)SC2=S)CC1
inactive: all assays above

O=C(O)/C(S)=C/c1c(Cl)ccc(Cl)c1Cl
inactive: all assays above

O=C(O)/C(S)=C/c1ccccc1Cl
inactive: all assays above

O=C(O)/C(S)=C/c1cccc(Cl)c1Cl
inactive: all assays above

O=C(O)/C(S)=C/c1c(Cl)cccc1Cl
inactive: all assays above

Cc1cccc(C)c1/C=C1\SC(=S)N(CC(=O)O)C1=O
inactive: all assays above

O=C(O)/C(S)=C/c1ccccc1
inactive: all assays above

Cc1cccc(C)c1/C=C(\S)C(=O)O
inactive: all assays above

CN1CCN(NC(=O)CN2C(=O)/C(=C/c3ccccc3)SC2=S)CC1
inactive: all assays above

O=C(O)/C(S)=C/c1ccccc1Br
inactive: all assays above

O=C(O)/C(S)=C/c1ccc(F)cc1
inactive: all assays above

Cc1cccc(C)c1/C=C1\SC(=S)N(CC(=O)NN2CCN(C)CC2)C1=O
inactive: all assays above

CN1CCN(NC(=O)CN2C(=O)/C(=C/c3c(F)ccc(F)c3F)SC2=S)CC1
inactive: all assays above

CN1CCN(NC(=O)CN2C(=O)/C(=C/c3cc(Cl)ccc3Cl)SC2=S)CC1
inactive: all assays above

CN1CCN(NC(=O)CN2C(=O)/C(=C/c3cccc(Cl)c3Cl)SC2=S)CC1
inactive: all assays above

CN1CCN(NC(=O)CN2C(=O)/C(=C/c3ccccc3Br)SC2=S)CC1
inactive: all assays above

From ChEMBL document CHEMBL4118127, “Structure activity relationship studies on rhodanines and derived enethiol inhibitors of metallo-β-lactamases” (Bioorg Med Chem, 2018)
